≈ marks a conversion by molar mass, not a printed value.

The conditions of the series: buffer; pH 7.4; 200.0 µM.
For the molecule `COc1ccccc1NC(=O)c1ccc(-n2ccnc2)c([N+](=O)[O-])c1`, the solubility (kinetic) is over 50.7 µg/mL.
The molecule `CC(C)(CC(=O)O)CC(=O)Nc1ccc(Cl)c(Cl)c1` came in with a solubility (kinetic) of over 45.6 µg/mL.
Regarding `CCOc1ccc(OCCCC(=O)N(C)CC(=O)Nc2ccccc2Br)cc1`, the kinetic solubility was 5.6 µg/mL (≈ 12.5 µM).
`O=C1/C(=C/c2ccncc2)SC(=S)N1Cc1ccccc1` returned a kinetic solubility of 1.7 µg/mL (≈ 5.44 µM).
For `Cn1ccc(C(=O)N/N=C/c2ccncc2)n1`, the kinetic solubility is over 34.4 µg/mL.
`NC(=O)CSc1nnc(-c2ccco2)n1-c1ccccc1` registered a kinetic solubility of over 45.1 µg/mL.
Then `NC(=O)c1c(NC(=O)COC(=O)c2ccc(O)c(Cl)c2)sc2c1CCCC2`, with 8.5 µg/mL (≈ 20.8 µM); and `O=C(NCc1cccnc1)C(=O)NCC(c1ccco1)N1CCOCC1` (configuration not stated), with over 53.8 µg/mL; and `Cc1cc(C)c(NC(=O)CN(C)CC(=O)Nc2cccc(S(=O)(=O)N(C)c3ccccc3)c2)c(C)c1.O=C(O)C(=O)O`, with 14.3 µg/mL.
`CCCS(=O)(=O)N1CCCC(C(=O)Oc2ccc(C)c(C)c2)C1` (configuration not stated) came in with a solubility (kinetic) of under 0.7 µg/mL.
`CCOC(=O)CC(=O)COc1nc2cc3c(nc2o1)CCCC3` returned a kinetic solubility of over 47.7 µg/mL.
With `COc1ccc(Cl)cc1NC(=O)CN(C)Cc1cccs1`, the solubility (kinetic) was determined as 3 µg/mL (≈ 9.24 µM).
As for `O=C(NCC1COc2ccccc2O1)C1(c2ccccc2)CCCC1` (configuration not stated), the solubility (kinetic) amounted to 17.8 µg/mL (≈ 52.8 µM).
The same measure for `O=C(COc1ccccc1)NCC1(N2CCCCC2)CCCCC1`: 48.3 µg/mL (≈ 146 µM); for `Cl.N[C@H]1C(O)O[C@H](CO)[C@@H](O)[C@@H]1O` (some centres not stated): over 32.3 µg/mL.
Consider `CCN1/C(=C2\OC(=S)N(C)C2=O)C=Cc2ccccc21`, for which the solubility (kinetic) turned out to be 0.3 µg/mL (≈ 1.05 µM).
Regarding `COc1ccc(NC(C)=O)cc1CNC(=O)CN1CCOCC1`, the kinetic solubility is over 48.2 µg/mL.
The same measure for `CC(=O)Nc1cccc(NC(=O)c2csc(C)c2)c1`: over 41.2 µg/mL; for `CC(=O)N1C(C)(C)CC(=NOC(=O)c2ccccc2)CC1(C)C`: 47.1 µg/mL (≈ 149 µM).
`Cc1nc(SCC(=O)NC(=O)NC(C)C)nc(C)c1C` returned a kinetic solubility of over 44.5 µg/mL.
The same measure for `CCC(=O)c1cn(CC(=O)Nc2ccc(OC)cc2)c2ccccc12`: under 0.4 µg/mL.
`CCc1nc2sccc2c(=O)[nH]1` displayed a solubility (kinetic) of over 27 µg/mL.
Take `Cc1ccccc1N1CC(C(=O)Nc2ccc3c(c2)OCO3)CC1=O` (configuration not stated): the kinetic solubility stood at 43.4 µg/mL (≈ 128 µM).
On to `CN(C)S(=O)(=O)c1cccc(NC(=O)c2ccc(N3CCCC3=O)cc2)c1`, for which the solubility (kinetic) is 5.7 µg/mL (≈ 14.7 µM).
Turning to `CC(C)c1ccc(/C=C/C(=O)N2CCOCC2)cc1`, the solubility (kinetic) stood at 36.3 µg/mL (≈ 140 µM).
Then `COC(=O)C1=C(C)Nc2nc3ccccc3n2C1c1ccccc1F` (configuration not stated), with 0.3 µg/mL (≈ 0.889 µM).
In turn, `CCOC(=O)CN1C(=O)C(=O)N(Cc2ccccc2)C1=O` showed a kinetic solubility of over 43.5 µg/mL.
In the case of `CC(C)c1c(O)nc(SCC(=O)N2CCCCC2)[nH]c1=O`, the kinetic solubility was over 46.7 µg/mL.
In turn, `CCOC(=O)c1c(C)[nH]c(C)c1C=O` registered a solubility (kinetic) of over 29.3 µg/mL.
With `Cn1c(=O)c2c(nc(NC3CCCC3)n2C)n(C)c1=O`, the kinetic solubility was over 41.6 µg/mL.
For the molecule `O=C(O)CCC(=O)N1CCN(Cc2ccc3c(c2)OCO3)CC1`, the solubility (kinetic) came out at 28.1 µg/mL (≈ 87.7 µM).
The same measure for `CC(=O)Nc1ccc(C(=O)/C=C/c2ccc[nH]2)cc1`: 2.9 µg/mL (≈ 11.4 µM).
`O=C(C(=S)N1CCOCC1)c1c[nH]c2ccccc12` came in with a kinetic solubility of over 41.2 µg/mL.
The same measure for `COc1ccc(CCNC(=O)Nc2cccs2)c(OC)c1`: 15.6 µg/mL (≈ 50.9 µM); for `O=C(c1ncc[nH]1)c1ccccc1Cl`: over 31 µg/mL.
With `CCOC(=O)c1nc(Nc2ccc(OC)cc2)c2ccccc2n1`, the solubility (kinetic) was over 48.5 µg/mL.
`O=C1c2ccccc2CN1CCNC(=S)NC1CCCCC1` showed a kinetic solubility of over 47.6 µg/mL.
The same measure for `S=C(NCCC1=CCCCC1)NCc1ccco1`: 38.8 µg/mL (≈ 147 µM); for `Cc1nc(SCC(=O)N2CCNC2=O)c2ccccc2n1`: over 45.4 µg/mL; for `O=C(OCc1cncs1)c1ccccc1`: over 32.9 µg/mL.
`O=C(Nc1cccc(S(=O)(=O)N2CCCC2)c1)c1cncc(Br)c1` returned a solubility (kinetic) of 60.4 µg/mL (≈ 147 µM).
As to `CCN(C(=O)CSc1nc(C)cc(=O)[nH]1)C1CCCCC1`, the kinetic solubility is over 46.4 µg/mL.
The same measure for `CCC(CC)C(=O)c1c[nH]c(C(=O)NCc2ccccc2)c1`: 2.2 µg/mL (≈ 7.37 µM); for `CC(=O)Nc1ccc(C(=O)COC(=O)c2ccco2)c(F)c1`: over 45.8 µg/mL; for `CC(=O)c1cc2c(cc1NC(=O)Cc1c(C)noc1C)OCO2`: over 47.4 µg/mL.
The molecule `CC(=O)c1cccc(NC(=O)COC(=O)c2ccccc2C)c1` displayed a kinetic solubility of 4.9 µg/mL (≈ 15.7 µM).
The same measure for `O=S(=O)(NC1CCCCC1)c1ccc(N2CCOCC2)nc1`: over 48.8 µg/mL; for `N#Cc1ccccc1NC(=O)COC(=O)CN1C(=O)C2CCCCC2C1=O` (configuration not stated): over 55.4 µg/mL.
The same measure for `O=C(COC(=O)Cc1ccc(F)cc1)NCCc1ccccc1`: over 47.3 µg/mL.
Then `Cc1cc(Nc2cccc(Cl)c2)c2ccccc2n1`, with 32.5 µg/mL (≈ 121 µM).
As for `Cc1c(C(=O)NCCCn2ccnc2)oc2ccccc12`, the solubility (kinetic) was found to be 34.1 µg/mL (≈ 120 µM).
The same measure for `CC1CCCC(NCC(=O)Nc2ccc(C(N)=O)cc2)C1C` (configuration not stated): over 45.5 µg/mL.

As usually defined, the solubility (kinetic) is solubility judged after dilution from a stock solution rather than from solid.

These data come from PubChem BioAssay AID1996.
